From publication PMC4229119, “Alzheimer's Therapeutics Targeting Amyloid Beta 1–42 Oligomers II: Sigma-2/PGRMC1 Receptors Mediate Abeta 42 Oligomer Binding and Synaptotoxicity” (PLoS ONE, 2014)

What was measured:
mu opioid = target: T1, mu opioid (Homo sapiens, UniProt P35372); test: Cerep panel: mu opioid radioligand binding; settings: Cerep 0118
T1 construct: purchased Cerep/Eurofins, Inc. 0118
Experimental: (§1) Active CogRx molecules were counterscreened for activity at 100 central nervous system receptors and enzymes (including those involved in neurotransmission and synaptic plasticity) in industry-standard assays measuring radioligand binding displacement and signaling activity (assays performed at Cerep/Eurofins, Inc., Table S1). […] To determine if these compounds were capable of displacing binding to sigma-2/PGRMC1 receptors in human brain, CT0093 and CT0109 were added in increasing concentrations to serial sections of unfixed frozen cognitively normal elderly human frontal cortex in the presence of a specific radioligand for sigma-2/PGRMC1, ^125I-RHM-4 [31] ( Fig. 1 B–D ).

synapses = tested on: synapses; set-up: method as in PMID 25390368; settings: cited from earlier work
[1] = tested on: mouse models of Alzheimer's disease; set-up: method as in PMID 25390368; settings: cited from earlier work
[2] = tested on: primary hippocampal/cortical cultures; test: Cell death in mature primary neuronal cultures; assay type: cell-based, rat
Dopamine 3 = target: T2, Dopamine 3 (Homo sapiens, UniProt P35462); test: Cerep panel: Dopamine 3 agonist activity; assay type: cell-based; settings: Cerep 0683
T2 construct: purchased Cerep/Eurofins, Inc
T2 sequence (P35462 whole entry): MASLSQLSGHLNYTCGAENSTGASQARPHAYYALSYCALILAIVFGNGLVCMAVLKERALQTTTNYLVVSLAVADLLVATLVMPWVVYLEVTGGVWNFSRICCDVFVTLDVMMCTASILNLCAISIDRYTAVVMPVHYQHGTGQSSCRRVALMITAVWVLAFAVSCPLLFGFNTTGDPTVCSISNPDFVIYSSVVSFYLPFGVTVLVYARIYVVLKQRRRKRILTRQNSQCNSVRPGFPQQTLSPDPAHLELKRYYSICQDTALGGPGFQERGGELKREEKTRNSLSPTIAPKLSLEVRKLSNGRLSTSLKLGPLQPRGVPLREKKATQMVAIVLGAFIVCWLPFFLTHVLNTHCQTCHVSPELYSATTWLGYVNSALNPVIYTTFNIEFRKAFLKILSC
Experimental: as §1

sigma-2/PGRMC1 receptor = target: T3, sigma-2/PGRMC1 receptor (Homo sapiens, UniProt Q5BJF2); test: Sigma-2 radioligand binding ([3H]DTG competition, Jurkat cell membranes; Cerep 0148); settings: homogenates of a human T cell line; mean ± S.E.M.; read-out: Ki, displacement of selective radioligand [3H]-DTG from sigma-2/PGRMC1 receptor
T3 construct: host or cells: Jurkat cell membranes
T3 sequence (Q5BJF2 whole entry): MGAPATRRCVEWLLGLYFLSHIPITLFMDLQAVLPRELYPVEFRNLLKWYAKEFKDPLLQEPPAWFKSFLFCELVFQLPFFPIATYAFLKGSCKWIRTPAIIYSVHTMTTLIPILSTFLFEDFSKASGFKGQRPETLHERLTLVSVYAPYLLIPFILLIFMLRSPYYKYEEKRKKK
Experimental: Radioligand competition assays were performed in membranes from Jurkat cells using 5 nM [^3H]1,3-di(2-tolyl) guanidine in the presence of 1 µM (+)-pentazocine with 10 µM haloperidol to define non-specific binding.

[3] = target: T4, sigma-2/PGRMC1 receptors in human brain (Homo sapiens, UniProt Q5BJF2); test: Quantitative autoradiography, radioligand displacement from human frontal cortex sections; settings: serial sections of unfixed frozen cognitively normal elderly human frontal cortex; 10-10,000 nM compound; N = 4; read-out: Ki at the [125I]RHM-1 binding site, human frontal cortex
T4 construct: serial sections of unfixed frozen cognitively normal elderly human frontal cortex; from tissue; host or cells: human frontal cortex, unfixed frozen sections
T4 sequence (Q5BJF2 whole entry): as above
Experimental: Quantitative autoradiography studies on frozen unfixed serial tissue sections from normal (N = 4) or Alzheimer's disease (N = 4) postmortem patients' neocortex were conducted and quantified according to previously published procedures [40]. [^3H](+) pentazocine was used as the radioligand for sigma-1 receptors and [^125I]RHM-1 (American Radiolabelled Chemicals, Inc.) or [^3H]DTG (1,3-Di-(2-tolyl)guanidine (Perkin Elmer) in the presence of 1 µM (+) pentazocine for sigma-2 receptors [32]. Human brain samples for these studies were obtained with written consent as previously published [40].

caspase-3/7 [4] = test: SV119-induced caspase-3/7 activation in hippocampal and cortical cultures, co-treatment with antagonists; assay type: cell-based, rat; settings: for block of the activation of caspase-3/7 by SV119: 40 µM antagonist, ascending concentrations of SV119, hippocampal and cortical cultures
Experimental: (§2) Little is known about the functional pharmacology of ligands for the sigma-2/PGRMC1 receptor. […] Finally, we treated hippocampal and cortical cultures with ascending concentrations of SV119 to induce caspase activation, in the presence of 40 µM of each of the sigma-2/PGRMC1 antagonists CT0109, CT0093 and RHM-1 ( Fig. 8E ).

[5] = tested on: mixed cultures of hippocampal plus cortical neurons and glia; set-up: method as in PMID 25390368; settings: cited from earlier work
Sigma-1 = target: T5, Sigma-1 (Homo sapiens, UniProt Q99720); test: Cerep panel: Sigma-1 radioligand binding; settings: Cerep 0889
T5 construct: purchased Cerep/Eurofins, Inc. 0889
T5 sequence (Q99720 whole entry): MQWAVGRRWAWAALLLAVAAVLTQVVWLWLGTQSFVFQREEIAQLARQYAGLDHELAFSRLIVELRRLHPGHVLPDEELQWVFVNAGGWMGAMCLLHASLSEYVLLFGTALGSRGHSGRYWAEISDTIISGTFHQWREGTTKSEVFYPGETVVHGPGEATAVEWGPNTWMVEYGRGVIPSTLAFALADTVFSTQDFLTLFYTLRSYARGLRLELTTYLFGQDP
Experimental: as §1

caspase-3/7 [6] = test: Caspase-3/7 activation in primary hippocampal/cortical cultures; assay type: cell-based, rat; settings: for activation of caspase-3/7: primary hippocampal/cortical cultures
Experimental: as §2

caspase-3/7 [7] = test: Caspase-3/7 activation in SKOV-3 tumor cell line; assay type: cell-based, human
Na^+ Channel (site2) = test: Cerep panel: Na+ Channel (site2) radioligand binding; settings: Cerep 0169
Experimental: as §1

[8] = tested on: SKOV-3 human ovarian cancer cells; test: Cell death in SKOV-3 human ovarian cancer cells; assay type: cell-based
[9] = target: hippocampal and cortical neurons; test: Abeta binding assay (Abeta oligomer binding to synaptic puncta of cultured neurons); assay type: cell-based, rat
Experimental: To assess the ability of test compounds to prevent the binding of Abeta oligomers, cultures were treated with compounds for 30 minutes, followed by synthetic Abeta 1–42 oligomer preparation treatment for 60 min (total Abeta concentration 0.5 µM, equivalent to Kd concentration). Alternatively, displacement of prebound oligomers was evaluated by adding oligomers 60 min prior to the addition of compounds, followed by additional 30 minutes incubation. […]
Neuronal cultures were treated with either a mixture of 4 siRNAs targeted against PGRMC1 (GUCUAGGUCUUGGAUAAUA, GGUUUUACCUCAAAUCAGA, UUAGAAUGCAUGAUGUGUU, CUUCUAUCUGUAGUUAAAA, catalog number A-095365-00-0050) or a non-targeting sequence (UGGUUUACAUGUUUUCCUA, catalog number D-001910-03-50, Accell, ThermoFisher). siRNA were resuspended to 100 µM in RNase free water, shaken for 1.5 hours at 37°C, diluted in media and applied to cells at 1 or 2 uM for 48 hours prior to addition of Abeta oligomers for 30 minutes. Cultures were then fixed and co-immunolabeled with 6E10 antibody to detect Abeta and antibody to detect PGRMC1 as described above and analyzed via automated image processing as described above. For PGRMC1 measurements, total intensity in cell bodies was measured. […]

sigma-2/PGRMC1 = test: Immunofluorescent sigma-2/PGRMC1 expression in neuronal cultures; assay type: cell-based, rat; settings: for increase of total intensity of sigma-2/PGRMC1 expression in the cell body: 400 nM Abeta oligomers, pooled neurons and glia, vs vehicle
Experimental: To assess the ability of test compounds to prevent the binding of Abeta oligomers, cultures were treated with compounds for 30 minutes, followed by synthetic Abeta 1–42 oligomer preparation treatment for 60 min (total Abeta concentration 0.5 µM, equivalent to Kd concentration). Alternatively, displacement of prebound oligomers was evaluated by adding oligomers 60 min prior to the addition of compounds, followed by additional 30 minutes incubation. Cells were fixed with 3.75% formaldehyde for 15 min, blocked with 5% normal goat serum and 0.5% Triton X-100 and incubated with primary antibodies for Abeta (1 µg/ml 6E10 or 4G8, Covance catalog numbers SIG-39320 and SIG-39330, respectively), MAP-2 (0.2 µg/ml Chemicon), Synaptophysin-1 (1 µg/ml, Anaspec), glial fibrillary acidic protein (GFAP, 1 µg/ml, Thermo-Fisher) and fluorescently labeled secondary antibodies (2 µg/ml, Invitrogen). Images were acquired on a Cellomics VTi automated microscope with a 20X, 0.75 NA objective and analyzed using ThermoFisher/Cellomics Neuronal Profiling bioapplication set to measure punctate labeling of Abeta and synaptophysin-1 along MAP-2 labeled neurites. For each replicate experiment, at least 100 neurons were sampled from 4 replicate wells for each experimental condition (400 to 500 neurons per experimental condition). […]
Neuronal cultures were treated with either a mixture of 4 siRNAs targeted against PGRMC1 (GUCUAGGUCUUGGAUAAUA, GGUUUUACCUCAAAUCAGA, UUAGAAUGCAUGAUGUGUU, CUUCUAUCUGUAGUUAAAA, catalog number A-095365-00-0050) or a non-targeting sequence (UGGUUUACAUGUUUUCCUA, catalog number D-001910-03-50, Accell, ThermoFisher). siRNA were resuspended to 100 µM in RNase free water, shaken for 1.5 hours at 37°C, diluted in media and applied to cells at 1 or 2 uM for 48 hours prior to addition of Abeta oligomers for 30 minutes. Cultures were then fixed and co-immunolabeled with 6E10 antibody to detect Abeta and antibody to detect PGRMC1 as described above and analyzed via automated image processing as described above. For PGRMC1 measurements, total intensity in cell bodies was measured.

T1 sequence (P35372 whole entry): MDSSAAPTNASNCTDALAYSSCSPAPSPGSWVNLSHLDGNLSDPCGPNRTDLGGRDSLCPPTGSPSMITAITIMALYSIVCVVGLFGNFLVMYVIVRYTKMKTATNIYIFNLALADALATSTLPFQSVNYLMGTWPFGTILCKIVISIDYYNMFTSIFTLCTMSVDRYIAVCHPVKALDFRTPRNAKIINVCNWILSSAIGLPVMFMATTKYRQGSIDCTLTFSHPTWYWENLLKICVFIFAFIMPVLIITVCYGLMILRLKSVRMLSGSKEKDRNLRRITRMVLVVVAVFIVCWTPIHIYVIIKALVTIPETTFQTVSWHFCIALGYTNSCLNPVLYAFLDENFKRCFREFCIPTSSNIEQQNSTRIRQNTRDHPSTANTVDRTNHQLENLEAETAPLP

| Compound | concentrations at which cell viability is affected [2] [µM] | block of the activation of caspase-3/7 by SV119 (caspase-3/7 [4]) | activation of caspase-3/7 (caspase-3/7 [6]) | activation of caspase-3/7 (caspase-3/7 [7]) | concentrations at which cell viability is affected [8] [µM] | dose-dependent cell death [2] | dose-dependent cell death [8] | other results |
| --- | --- | --- | --- | --- | --- | --- | --- | --- |
| COc1cc(CCC(C)NCc2ccc(C(F)(F)F)cc2)ccc1O (centres unmarked) [CT0109] | > 100 | significantly blocked the activation of caspase-3/7 by SV119 | did not | did not | > 100 |  |  | Ki (mu opioid): 1700 nM; restoration of synapses (synapses): restore synapses to normal; restoration of cognitive function [1]: restore cognitive function; EC50 (Dopamine 3): 4100 nM; Ki (sigma-2/PGRMC1 receptor): 9 ± 7 nM; Ki [3]: 57 ± 23 nM; reversal of Abeta oligomer-mediated trafficking deficits [5]: reverse Abeta oligomer-mediated trafficking deficits; Ki (Sigma-1): 500 nM; Ki (Na^+ Channel (site2)): 2000 nM |
| COc1cc2c(cc1OC)CN(CCCCNC(=O)c1cc(C)ccc1OC)CC2 [RHM-1] | > 100 | did not | did not | did not | > 100 |  |  |  |
| COc1ccc(C)cc1NC(=O)OC1C[C@H]2CCC[C@@H](C1)N2CCCCCCN (some centres unmarked) [SV-119] |  |  |  |  |  | caused dose-dependent cell death | caused dose-dependent cell death | activation of caspase 3/7 (caspase-3/7 [4]; 20 to 80 µM for 24 hours, hippocampal and cortical cells, p<0.05 vs control): induced the activation of caspase 3/7 |
| Fc1ccc(-n2cc(CCCCN3CCC4(CC3)OCc3ccccc34)c3ccccc32)cc1 [siramesine] |  |  | activated caspase-3/7 | activated caspase-3/7 |  | caused dose-dependent cell death | caused dose-dependent cell death |  |
| Abeta oligomers: synthetic Abeta 1–42 oligomer preparation |  |  |  |  |  |  |  | Kd ([9]; specific and saturable binding, read-out: Kd, binding to a single receptor site on neuronal synaptic puncta): 518 ± 41 nM; increase of total intensity of sigma-2/PGRMC1 expression in the cell body (sigma-2/PGRMC1; 24 hours): 13%; increase of total intensity of sigma-2/PGRMC1 expression in the cell body (sigma-2/PGRMC1; 48 hours): 28%; oligomer-induced caspase activation (caspase-3/7 [6]; 21 DIV primary hippocampal and cortical neuronal cultures, 3–48 hours, up to 28 uM): unable to detect oligomer-induced caspase activation |
| Non-targeting siRNA: non-targeting sequence UGGUUUACAUGUUUUCCUA, catalog number D-001910-03-50 (further chemistry not given here) [reference compound] |  |  |  |  |  |  |  | reduction in Abeta oligomer binding ([9]; siRNA 1 or 2 µM, 48 hours, then Abeta oligomers 30 minutes, vs untreated cultures): has no effect; reduction in immunocytochemically detectable sigma-2/PGRMC1 protein in neuronal cell body and synaptic puncta (sigma-2/PGRMC1; siRNA 1 or 2 µM, 48 hours, vs untreated cultures): has no effect |
